In article PMC9609861, “Nebivolol as a Potent TRPM8 Channel Blocker: A Drug-Screening Approach through Automated Patch Clamping and Ligand-Based Virtual Screening” (Membranes, 2022):

Each compound was assayed against T1, human TRPM8 (Homo sapiens, UniProt Q7Z2W7) (assay: Automated patch clamp (IonFlux 16) of menthol-evoked TRPM8 currents in HEK293 cells stably expressing human TRPM8). Settings: 1 µM AMTB.
T1 construct: expressed in transfected cells
Type: cell-based
Experimental: HEK293 cells, stably expressing human TRPM8 (GenBank number NM_024080), were cultured in T75 tissue culture flasks using Dulbecco’s modified Eagle medium (Euroclone, Pero, Italy), supplemented with 10% FBS (Euroclone, Pero, Italy) plus Geneticin (Sigma-Aldrich, St. Louis, MI, USA) 800 μg/mL at 37° C, in a humidified 5% CO2 atmosphere. The cells were maintained until they reached 70~80% confluency. Prior to use, the cells were washed twice with Ca^2+ and Mg^2+ free PBS (Euroclone, Pero, Italy), subsequently detached using Accutase (Euroclone, Pero, Italy), and kept in suspension using CHO-SFM-II medium (Gibco, by Thermo Fisher Scientific, Carlsbad, CA, USA). The cells were then resuspended in the external solution after a centrifugation at 1000 rpm for 2 min. Single-cells suspension, with a final concentration of 3–5 million cells/mL, was required for the automated patch clamp electrophysiology procedure.
We performed automated patch clamp recordings by using the IonFlux 16 system (Fluxion Biosciences, Alameda, CA, USA). The procedure includes four automated phases—prime, trap, break, and data acquisition—in the whole-cells voltage clamp. The cells were voltage clamped at a holding potential of −60 mV, stepped to −100 mV, ramped to +100 mV in 200 ms, and finally stepped back to −60 mV. Voltage command was executed every 5 s, and currents were recorded with a sampling rate of 5 kHz. […] The interval range between each application was 90 s, and intervals included washing cells with an external solution-containing vehicle. However, the duration of each application was adjusted based on each drug’s lipophilicity and kinetic of inhibition. For leakage subtraction, leakage was measured by applying a short 20 mV pulse (typically from −80 mV to −100 mV) at the beginning of each sweep to measure the current difference. By assuming linear leakage and subtracting proportional currents from each of the different voltage command segments, the software performs automatic leakage subtraction. […] The extracellular solution contained 140 mM NaCl, 4 mM KCl, 1 mM MgCl2, 10 mM glucose, and 10 mM HEPES, pH 7.4 with NaOH and 310 mOsm. We removed Ca^2+ from the external solution to avoid the Ca^2+-dependent desensitization of TRPM8. The intracellular solution contained the following (mM): 60 CsCl, 70 CsF, 5 Na2ATP, 10 HEPES, and 10 EGTA, pH 7.2 with CSOH and 295 mOsm. All recordings were performed at a temperature of 20 ± 1 °C.
All compounds were obtained from Sigma-Aldrich. Stock solutions were prepared in 50 mM of dimethyl sulfoxide (DMSO) and stored at −20° C.
The analysis of the data was carried out using the ‘data analyzer software’ (Data Analyzer v. 5.0 (beta), Fluxion Biosciences, Alameda, CA, USA), Microsoft Excel 365, and the Prism 9.0 software (GraphPad Software Inc., San Diego, CA, USA). The average current density of the last three recordings at +80 mV in each application period was used as the current amplitude.
IC50 and EC50 were calculated by fitting the four-parameter Hill equation using GraphPad Prism.
Four-parameter Hill equation: f(x)=Imin+(Imax−Imin/1+(C50/x)^h)
Data are expressed as the mean ± standard deviation (SD).

T1 sequence (Q7Z2W7 whole entry): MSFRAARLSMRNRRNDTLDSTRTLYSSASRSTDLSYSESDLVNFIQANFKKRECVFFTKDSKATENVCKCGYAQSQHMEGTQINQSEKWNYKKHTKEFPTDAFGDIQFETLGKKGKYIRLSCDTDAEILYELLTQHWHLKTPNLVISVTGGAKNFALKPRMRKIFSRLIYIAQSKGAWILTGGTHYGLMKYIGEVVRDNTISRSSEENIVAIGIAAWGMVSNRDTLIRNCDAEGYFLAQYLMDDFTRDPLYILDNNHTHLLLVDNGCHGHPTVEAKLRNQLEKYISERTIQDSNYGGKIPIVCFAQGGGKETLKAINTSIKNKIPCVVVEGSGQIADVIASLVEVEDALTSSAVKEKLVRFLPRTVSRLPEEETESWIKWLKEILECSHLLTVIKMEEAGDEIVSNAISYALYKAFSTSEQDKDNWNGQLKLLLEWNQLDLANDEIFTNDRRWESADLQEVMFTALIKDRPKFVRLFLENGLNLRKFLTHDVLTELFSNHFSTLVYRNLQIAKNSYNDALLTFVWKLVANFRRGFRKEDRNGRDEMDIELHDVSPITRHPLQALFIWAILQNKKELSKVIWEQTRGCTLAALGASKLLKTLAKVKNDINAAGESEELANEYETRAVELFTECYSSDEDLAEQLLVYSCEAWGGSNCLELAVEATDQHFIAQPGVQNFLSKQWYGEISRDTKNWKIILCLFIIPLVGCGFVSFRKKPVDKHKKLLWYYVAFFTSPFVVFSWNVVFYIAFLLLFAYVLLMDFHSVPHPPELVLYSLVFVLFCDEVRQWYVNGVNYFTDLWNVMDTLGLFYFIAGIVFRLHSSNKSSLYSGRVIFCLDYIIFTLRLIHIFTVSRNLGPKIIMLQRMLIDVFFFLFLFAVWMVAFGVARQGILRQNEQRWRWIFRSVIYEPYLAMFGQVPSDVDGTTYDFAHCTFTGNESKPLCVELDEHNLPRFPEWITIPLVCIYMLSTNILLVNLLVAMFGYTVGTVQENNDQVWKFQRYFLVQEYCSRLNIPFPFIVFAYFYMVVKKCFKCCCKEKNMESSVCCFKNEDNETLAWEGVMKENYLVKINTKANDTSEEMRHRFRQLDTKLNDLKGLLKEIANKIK

SMILES | Block of menthol-activated currents
Cc1cccc(COc2ccccc2C(=O)N(CCCN)Cc2cccs2)c1.Cl [AMTB, N-(3-Aminopropyl)-2-[(3-methylphenyl)methoxy]-N-(2-thienylmethyl)benzamide hydrochloride] | fully blocked

Same assay, conditions: HEK293, read-out: Average Percentage Inhibition at 10 µM

SMILES | inhibition at 10 µM [%]
NCC1(CC(=O)O)CCCCC1 [Gabapentin, gabapentin] | 0

Same assay, conditions: HEK293; read-out: Average Percentage Inhibition at 10 µM

SMILES | inhibition at 10 µM [%]
CCCC(=O)Nc1ccc(OCC(O)CNC(C)C)c(C(C)=O)c1 (stereo not drawn) [Acebutolol, acebutolol] | 0
CC(C)NCC(O)COc1ccc(CC(N)=O)cc1 (stereo not drawn) [Atenolol, atenolol] | 0
NC(=O)N1c2ccccc2C=Cc2ccccc21 [Carbamazepine, carbamazepine] | 0
COc1ccccc1OCCNCC(O)COc1cccc2[nH]c3ccccc3c12 (stereo not drawn) [Carvedilol, carvedilol] | 57
O=C(NCC1CCCCN1)c1cc(OCC(F)(F)F)ccc1OCC(F)(F)F (stereo not drawn) [Flecainide, flecainide] | 0
Nc1nnc(-c2cccc(Cl)c2Cl)c(N)n1 [Lamotrigine, lamotrigine] | 0
COCCc1ccc(OCC(O)CNC(C)C)cc1 (stereo not drawn) [Metoprolol, metoprolol] | 0
Cc1cccc(C)c1OCC(C)N (stereo not drawn) [Mexiletine, mexiletine] | 0
CC(C)(C)NCC(O)COc1cccc2c1CC(O)C(O)C2 (stereo not drawn) [Nadolol, nadolol] | 0
OC(CNCC(O)C1CCc2cc(F)ccc2O1)C1CCc2cc(F)ccc2O1 (stereo not drawn) [Nebivolol, nebivolol] | 100
NC(=O)N1c2ccccc2CC(=O)c2ccccc21 [Oxcarbazepine, oxcarbazepine] | 0
O=C1NC(=O)C(c2ccccc2)(c2ccccc2)N1 [Phenytoin, phenytoin] | 0
CCCNCC(O)COc1ccccc1C(=O)CCc1ccccc1 (stereo not drawn) [Propafenone, propafenone] | 26
CC(C)NCC(O)COc1cccc2ccccc12 (stereo not drawn) [Propranolol, propranolol] | 12
COc1ccccc1OCC(O)CN1CCN(CC(=O)Nc2c(C)cccc2C)CC1 (stereo not drawn) [Ranolazine, ranolazine] | 0
Nc1nc2ccc(OC(F)(F)F)cc2s1 [Riluzole, riluzole] | 0
NC(=O)c1cn(Cc2c(F)cccc2F)nn1 [Rufinamide, rufinamide] | 0
CCCCNc1ccc(C(=O)OCCN(C)C)cc1 [Tetracaine, tetracaine] | 0

Same assay, conditions: at concentrations higher than 50 µM

SMILES | Block of outward TRPM8 currents induced by menthol
O=C(NCC1CCCCN1)c1cc(OCC(F)(F)F)ccc1OCC(F)(F)F (stereo not drawn) [Flecainide, flecainide] | partial block
O=C1NC(=O)C(c2ccccc2)(c2ccccc2)N1 [Phenytoin, phenytoin] | partial block

Same assay, conditions: at concentrations higher than IC50, prolonged washing, data not shown

SMILES | Reversibility of the inhibiting effect on washing
COc1ccccc1OCCNCC(O)COc1cccc2[nH]c3ccccc3c12 (stereo not drawn) [Carvedilol, carvedilol] | irreversible inhibiting effect
OC(CNCC(O)C1CCc2cc(F)ccc2O1)C1CCc2cc(F)ccc2O1 (stereo not drawn) [Nebivolol, nebivolol] | irreversible inhibiting effect

Same assay, conditions: below 50 µM

SMILES | Block of outward TRPM8 currents induced by menthol
CCCNCC(O)COc1ccccc1C(=O)CCc1ccccc1 (stereo not drawn) [Propafenone, propafenone] | significant blocking capacity

Same assay, conditions: electrophysiological data

SMILES | Inhibitory effect of nebivolol compared with carvedilol
OC(CNCC(O)C1CCc2cc(F)ccc2O1)C1CCc2cc(F)ccc2O1 (stereo not drawn) [Nebivolol, nebivolol] | ten times stronger

Same assay, conditions: read-out: IC50, inhibition of menthol-induced TRPM8 current

SMILES | IC50 [µM]
COc1ccccc1OCCNCC(O)COc1cccc2[nH]c3ccccc3c12 (stereo not drawn) [Carvedilol, carvedilol] | 9.1 ± 0.6
OC(CNCC(O)C1CCc2cc(F)ccc2O1)C1CCc2cc(F)ccc2O1 (stereo not drawn) [Nebivolol, nebivolol] | 0.97 ± 0.15
CCCNCC(O)COc1ccccc1C(=O)CCc1ccccc1 (stereo not drawn) [Propafenone, propafenone] | 16.8 ± 5
CC(C)NCC(O)COc1cccc2ccccc12 (stereo not drawn) [Propranolol, propranolol] | 45 ± 7

Same assay, conditions: β-blocker screen

SMILES | Blocking effect on TRPM8 menthol-evoked currents
COc1ccccc1OCCNCC(O)COc1cccc2[nH]c3ccccc3c12 (stereo not drawn) [Carvedilol, carvedilol] | showed a blocking effect
OC(CNCC(O)C1CCc2cc(F)ccc2O1)C1CCc2cc(F)ccc2O1 (stereo not drawn) [Nebivolol, nebivolol] | showed a blocking effect
CC(C)NCC(O)COc1cccc2ccccc12 (stereo not drawn) [Propranolol, propranolol] | showed a blocking effect
